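Step 1: Grow cells in 96-well plates. Step 2: Expose to compound for 48 hours at 5 concentrations. Step 3: Interpolate endpoints linearly; if unreached, use highest concentration. Abbreviation: GI50, concentration required for 50% inhibition of growth. TGI: concentration producing complete growth inhibition.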
Legend:
Assay in all cases: NCI tumour cell line growth inhibition, 48 h
786-0 renal = test system: 786-0 renal
CAKI-1 renal = test system: CAKI-1 renal
CCRF-CEM leukemia = test system: CCRF-CEM leukemia
HOP-92 NSCLC = test system: HOP-92 NSCLC
HS 578T breast = test system: HS 578T breast
MDA-MB-231 breast = test system: MDA-MB-231 breast
RPMI-8226 leukemia = test system: RPMI-8226 leukemia
SK-MEL-28 melanoma = test system: SK-MEL-28 melanoma
SNB-75 CNS = test system: SNB-75 CNS
U251 CNS = test system: U251 CNS

COc1ccc(N=C/C=C/Nc2ccc(OC)cc2)cc1
TGI (786-0 renal): 15.6 µM
TGI (CAKI-1 renal): 12.5 µM
TGI (CCRF-CEM leukemia): > 37.2 µM
TGI (HOP-92 NSCLC): 29.6 µM
TGI (HS 578T breast): 38.8 µM
TGI (MDA-MB-231 breast): 6.02 µM
TGI (RPMI-8226 leukemia): 30.4 µM
TGI (SK-MEL-28 melanoma): 29.1 µM
TGI (SNB-75 CNS): 33.1 µM
TGI (U251 CNS): 10.2 µM

Cc1nc2ccccc2n1CCc1nc2ccccc2s1
TGI (786-0 renal): > 100 µM
TGI (CAKI-1 renal): > 100 µM
TGI (CCRF-CEM leukemia): > 100 µM
TGI (HOP-92 NSCLC): > 100 µM
TGI (HS 578T breast): > 100 µM
TGI (MDA-MB-231 breast): > 100 µM
TGI (RPMI-8226 leukemia): > 100 µM
TGI (SK-MEL-28 melanoma): > 100 µM
TGI (SNB-75 CNS): > 100 µM
TGI (U251 CNS): > 100 µM

NNC(=O)c1ccccc1NC(=O)/C(=C/c1ccccc1)NC(=O)c1ccccc1
TGI (786-0 renal): > 100 µM
TGI (CAKI-1 renal): > 100 µM
TGI (CCRF-CEM leukemia): > 100 µM
TGI (HOP-92 NSCLC): > 100 µM
TGI (HS 578T breast): > 100 µM
TGI (MDA-MB-231 breast): > 100 µM
TGI (RPMI-8226 leukemia): > 100 µM
TGI (SK-MEL-28 melanoma): > 100 µM
TGI (SNB-75 CNS): > 100 µM
TGI (U251 CNS): > 100 µM

O=S1(=O)c2ccccc2N2CCCc3cc(Cl)cc1c32
TGI (786-0 renal): > 100 µM
TGI (CAKI-1 renal): > 100 µM
TGI (CCRF-CEM leukemia): > 100 µM
TGI (HS 578T breast): 84.7 µM
TGI (MDA-MB-231 breast): > 100 µM
TGI (SK-MEL-28 melanoma): > 100 µM
TGI (SNB-75 CNS): 29.9 µM

Cc1cc2ccccc2c[n+]1CC(=O)CC([O-])(C(F)(F)F)C(F)(F)F
TGI (786-0 renal): > 100 µM
TGI (CAKI-1 renal): > 100 µM
TGI (CCRF-CEM leukemia): > 100 µM
TGI (HOP-92 NSCLC): > 100 µM
TGI (HS 578T breast): > 100 µM
TGI (MDA-MB-231 breast): > 100 µM
TGI (RPMI-8226 leukemia): > 100 µM
TGI (SK-MEL-28 melanoma): > 100 µM
TGI (SNB-75 CNS): > 100 µM
TGI (U251 CNS): > 100 µM

COC(=O)c1c(O)ccc2c1c1c(n2C)C(=O)c2ccccc2C1=O
TGI (786-0 renal): 57 µM
TGI (CAKI-1 renal): 92.5 µM
TGI (CCRF-CEM leukemia): 51.9 µM
TGI (HOP-92 NSCLC): 21 µM
TGI (HS 578T breast): 42.2 µM
TGI (MDA-MB-231 breast): 25.8 µM
TGI (RPMI-8226 leukemia): 64.8 µM
TGI (SK-MEL-28 melanoma): > 100 µM
TGI (SNB-75 CNS): 15 µM
TGI (U251 CNS): 67.5 µM

CC1(C)N=C(N)N=C(N)N1c1cccc(CSc2ccccc2)c1
TGI (786-0 renal): > 100 µM
TGI (CAKI-1 renal): > 100 µM
TGI (HOP-92 NSCLC): > 100 µM
TGI (HS 578T breast): 68 µM
TGI (MDA-MB-231 breast): > 100 µM
TGI (RPMI-8226 leukemia): > 100 µM
TGI (SK-MEL-28 melanoma): > 100 µM
TGI (SNB-75 CNS): 43.8 µM
TGI (U251 CNS): > 100 µM

O=C1CC(c2cccc(Cl)c2)n2cccc21 (stereo unspecified)
TGI (786-0 renal): > 100 µM
TGI (CAKI-1 renal): > 100 µM
TGI (CCRF-CEM leukemia): > 100 µM
TGI (HOP-92 NSCLC): > 100 µM
TGI (HS 578T breast): > 100 µM
TGI (MDA-MB-231 breast): > 100 µM
TGI (RPMI-8226 leukemia): > 100 µM
TGI (SK-MEL-28 melanoma): > 100 µM
TGI (SNB-75 CNS): > 100 µM
TGI (U251 CNS): > 100 µM

C=C[C@H]1CN2CC[C@H]1C[C@@H]2[C@@H](O)c1ccnc2ccccc12
TGI (786-0 renal): > 100 µM
TGI (CAKI-1 renal): > 100 µM
TGI (HS 578T breast): 8.28 µM
TGI (MDA-MB-231 breast): > 100 µM
TGI (RPMI-8226 leukemia): 90 µM
TGI (SK-MEL-28 melanoma): > 100 µM
TGI (SNB-75 CNS): > 100 µM
TGI (U251 CNS): > 100 µM

CO[P@]1(=O)O[C@@H](c2ccccc2)[C@H](O)[C@]1(O)c1ccccc1
TGI (786-0 renal): > 100 µM
TGI (CAKI-1 renal): > 100 µM
TGI (CCRF-CEM leukemia): > 100 µM
TGI (HOP-92 NSCLC): > 100 µM
TGI (HS 578T breast): > 100 µM
TGI (MDA-MB-231 breast): > 100 µM
TGI (RPMI-8226 leukemia): > 100 µM
TGI (SK-MEL-28 melanoma): > 100 µM
TGI (SNB-75 CNS): > 100 µM
TGI (U251 CNS): > 100 µM

CCCCCCCCOCC1S(=O)(=O)OCCOS1(=O)=O
TGI (786-0 renal): > 100 µM
TGI (CAKI-1 renal): > 100 µM
TGI (CCRF-CEM leukemia): > 100 µM
TGI (HOP-92 NSCLC): > 100 µM
TGI (HS 578T breast): > 100 µM
TGI (MDA-MB-231 breast): > 100 µM
TGI (RPMI-8226 leukemia): > 100 µM
TGI (SK-MEL-28 melanoma): > 100 µM
TGI (SNB-75 CNS): > 100 µM
TGI (U251 CNS): > 100 µM

O=c1[nH]cnc2c1ncn2[C@H]1CO[C@@H](CO)[C@@H]1O
TGI (786-0 renal): > 100 µM
TGI (CAKI-1 renal): > 100 µM
TGI (CCRF-CEM leukemia): > 100 µM
TGI (HOP-92 NSCLC): > 100 µM
TGI (HS 578T breast): > 100 µM
TGI (MDA-MB-231 breast): > 100 µM
TGI (RPMI-8226 leukemia): > 100 µM
TGI (SK-MEL-28 melanoma): > 100 µM
TGI (SNB-75 CNS): > 100 µM
TGI (U251 CNS): > 100 µM

COc1ccc2c(c1)CC[C@@H]1[C@@H]2CC[C@]2(C)/C(=N/OCCN3CCCCC3)CC[C@@H]12
TGI (786-0 renal): 3.41 µM
TGI (CAKI-1 renal): 4.17 µM
TGI (CCRF-CEM leukemia): 10.4 µM
TGI (HOP-92 NSCLC): 14.4 µM
TGI (HS 578T breast): 26.6 µM
TGI (MDA-MB-231 breast): 23.6 µM
TGI (RPMI-8226 leukemia): 6.35 µM
TGI (SK-MEL-28 melanoma): 5 µM
TGI (SNB-75 CNS): 18.2 µM
TGI (U251 CNS): 24.3 µM

CN(C)c1ccc(/C=N/NC2=N/C(=C\c3ccco3)C(=O)N2)cc1
TGI (786-0 renal): > 100 µM
TGI (CAKI-1 renal): > 100 µM
TGI (CCRF-CEM leukemia): > 100 µM
TGI (HOP-92 NSCLC): > 100 µM
TGI (HS 578T breast): > 100 µM
TGI (MDA-MB-231 breast): > 100 µM
TGI (RPMI-8226 leukemia): > 100 µM
TGI (SK-MEL-28 melanoma): > 100 µM
TGI (SNB-75 CNS): > 100 µM
TGI (U251 CNS): > 100 µM

CCCCCC(C)C[C@H]1CO[C@H](c2ccc[nH]2)N[C@H]1C(=O)OC (stereo partly specified)
TGI (786-0 renal): > 100 µM
TGI (CAKI-1 renal): > 100 µM
TGI (CCRF-CEM leukemia): > 100 µM
TGI (HOP-92 NSCLC): > 100 µM
TGI (HS 578T breast): > 100 µM
TGI (MDA-MB-231 breast): > 100 µM
TGI (RPMI-8226 leukemia): > 100 µM
TGI (SK-MEL-28 melanoma): > 100 µM
TGI (U251 CNS): > 100 µM

O=C(O)C(Cc1cccs1)C(=O)O
TGI (786-0 renal): > 100 µM
TGI (CAKI-1 renal): > 100 µM
TGI (CCRF-CEM leukemia): > 100 µM
TGI (HOP-92 NSCLC): > 100 µM
TGI (HS 578T breast): > 100 µM
TGI (MDA-MB-231 breast): > 100 µM
TGI (RPMI-8226 leukemia): > 100 µM
TGI (SK-MEL-28 melanoma): > 100 µM
TGI (SNB-75 CNS): > 100 µM
TGI (U251 CNS): > 100 µM

CN(C)Cc1cc(C(=O)/C=C/c2ccc(/C=C/C(=O)c3cc(CN(C)C)c(O)c(CN(C)C)c3)cc2)cc(CN(C)C)c1O
TGI (786-0 renal): 58.1 µM
TGI (CAKI-1 renal): > 100 µM
TGI (CCRF-CEM leukemia): > 100 µM
TGI (HOP-92 NSCLC): 56.4 µM
TGI (HS 578T breast): > 100 µM
TGI (MDA-MB-231 breast): 41.1 µM
TGI (RPMI-8226 leukemia): 65.5 µM
TGI (SK-MEL-28 melanoma): > 100 µM
TGI (SNB-75 CNS): > 100 µM
TGI (U251 CNS): 47 µM

CN(C)CCCOC(=O)C(O)(Cc1ccccc1)C1CC1 (stereo unspecified)
TGI (786-0 renal): > 100 µM
TGI (CAKI-1 renal): > 100 µM
TGI (CCRF-CEM leukemia): > 100 µM
TGI (HOP-92 NSCLC): > 100 µM
TGI (HS 578T breast): > 100 µM
TGI (MDA-MB-231 breast): > 100 µM
TGI (RPMI-8226 leukemia): > 100 µM
TGI (SK-MEL-28 melanoma): > 100 µM
TGI (SNB-75 CNS): > 100 µM
TGI (U251 CNS): > 100 µM

COc1cc(C2c3cc4c(cc3OC(N3CCOCC3)C2C)OCO4)cc(OC)c1O (stereo unspecified)
TGI (786-0 renal): > 50.4 µM
TGI (CAKI-1 renal): 26.1 µM
TGI (CCRF-CEM leukemia): > 100 µM
TGI (HOP-92 NSCLC): > 65.3 µM
TGI (HS 578T breast): 25.6 µM
TGI (MDA-MB-231 breast): > 84.2 µM
TGI (RPMI-8226 leukemia): > 100 µM
TGI (SK-MEL-28 melanoma): > 48.6 µM
TGI (SNB-75 CNS): 7.64 µM
TGI (U251 CNS): > 53.6 µM

COc1ccc(-c2cn3ccnc3c(-c3ccc4ncn(C5CCCCC5)c4c3)n2)cc1
GI50 (CAKI-1 renal): 0.757 µM
TGI (CAKI-1 renal): > 100 µM
GI50 (CCRF-CEM leukemia): 1.64 µM
TGI (CCRF-CEM leukemia): > 100 µM
GI50 (HOP-92 NSCLC): 1.18 µM
TGI (HOP-92 NSCLC): > 100 µM
GI50 (HS 578T breast): 1.16 µM
TGI (HS 578T breast): 49.3 µM
GI50 (MDA-MB-231 breast): 2.83 µM
TGI (MDA-MB-231 breast): > 100 µM
GI50 (RPMI-8226 leukemia): 2.96 µM
TGI (RPMI-8226 leukemia): > 100 µM
GI50 (SK-MEL-28 melanoma): 2.1 µM
TGI (SK-MEL-28 melanoma): > 100 µM
GI50 (SNB-75 CNS): 0.733 µM
TGI (SNB-75 CNS): > 100 µM
GI50 (U251 CNS): 2.22 µM
TGI (U251 CNS): > 100 µM

O=C1NC(N2CCOCC2)=N/C1=C\c1ccccc1O
TGI (786-0 renal): > 100 µM
TGI (CAKI-1 renal): > 100 µM
TGI (CCRF-CEM leukemia): > 100 µM
TGI (HOP-92 NSCLC): > 100 µM
TGI (HS 578T breast): > 100 µM
TGI (MDA-MB-231 breast): > 100 µM
TGI (RPMI-8226 leukemia): > 100 µM
TGI (SK-MEL-28 melanoma): > 100 µM
TGI (SNB-75 CNS): > 100 µM
TGI (U251 CNS): > 100 µM
